Results taken from patent publication US12478595B1, “Organoselenium compound for treating cancer” (IMAM MOHAMMAD IBN SAUD ISLAMIC UNIVERSITY, priority 2024, dated 2025).

Tests used:
Format in all cases: cell-based
[1] = test system: HCT116 (colorectal carcinoma); experiment: growth inhibition of HCT116 cancer cell line; settings: Homo sapiens, HCT-116, read-out: growth inhibition percentage
[2] = test system: normal oral epithelial cell line (OEC); experiment: growth inhibition of OEC non-cancer cell line; settings: read-out: growth inhibition percentage
[3] = test system: HN9 (human squamous cell carcinoma of the oral tongue); experiment: growth inhibition of HN9 cancer cell line; settings: read-out: growth inhibition percentage
[4] = test system: HuH7 (hepatocellular carcinoma); experiment: growth inhibition of HuH7 cancer cell line; settings: Homo sapiens, Huh-7, read-out: growth inhibition percentage
[5] = test system: A549 (non-small cell lung cancer); experiment: growth inhibition of A549 cancer cell line; settings: Homo sapiens, A549, read-out: growth inhibition percentage
[6] = test system: HEPG2 (hepatocellular carcinoma); experiment: growth inhibition of HEPG2 cancer cell line; settings: Homo sapiens, HepG2, read-out: growth inhibition percentage
[7] = test system: A375 (melanoma cancer); experiment: growth inhibition of A375 cancer cell line; settings: Homo sapiens, A-375, read-out: growth inhibition percentage

## C[Se]c1ccc(NC(=O)NCC2(C)CC(NC(=O)Nc3ccc([Se]C)cc3)CC(C)(C)C2)cc1 (stereo not shown) [HB188, 1-(4-(methylselanyl)phenyl)-3-((1,3,3-trimethyl-5-(3-(4-(methylselanyl)phenyl)ureido)cyclohexyl)methyl)urea]
[1]
  inhibition at 100 µg/mL: 85.3%
[2]
  inhibition at 100 µg/mL: 32.7%
[3]
  inhibition at 100 µg/mL: 74%
[4]
  inhibition at 100 µg/mL: 88.6%
[5]
  inhibition at 100 µg/mL: 74.4%
[6]
  inhibition at 100 µg/mL: 76.2%
[7]
  inhibition at 100 µg/mL: 66.8%
